34 compounds from article PMC9718554, “Discovery of a fragment hit compound targeting D-Ala:D-Ala ligase of bacterial peptidoglycan biosynthesis” (Journal of Enzyme Inhibition and Medicinal Chemistry, 2022) can be followed below.

The assay deals with T1, E. coli DdlB enzyme (D-alanine:D-alanine ligase) (Escherichia coli, UniProt P07862).
T1 construct: made in house; host or cells: E. coli
Briefly: biochemical. The following applies: for remaining activity at 1800 µM: tested concentration 1.8 mM; for remaining activity at 1700 µM: tested concentration 1.7 mM; for remaining activity at 2300 µM: tested concentration 2.3 mM; for remaining activity at 2200 µM: tested concentration 2.2 mM; for remaining activity at 2500 µM: tested concentration 2.5 mM; for remaining activity at 2000 µM: tested concentration 2.0 mM; for remaining activity at 1900 µM: tested concentration 1.9 mM; for remaining activity at 2100 µM: tested concentration 2.1 mM; for remaining activity at 2600 µM: tested concentration 2.6 mM; for remaining activity at 3200 µM: tested concentration 3.2 mM.

Setting [1] is: fragment library screening, read-out: DdlB RA.
Setting [2] is: residual activity, read-out: DdlB RA.
Setting [3] is: residual activity of DdlB, fragment library screening, read-out: DdlB RA.

Read-outs that look alike come from different tables or passages of the source.

As for `O=C(O)CCCn1cnc2ccc([N+](=O)[O-])cc2c1=O` [Compound Y044-6460], the remaining activity at 1800 µM under setting [1] came to 63%.

Consider `CCn1nccc1[C@H](C)NC(=O)[C@H]1CCCC[C@H]1C(=O)O` [Compound Y503-1571], for which, under setting [1], the remaining activity at 1700 µM was found to be 93%.

For `Cc1nc(N2CCC(C(=O)O)CC2)cc(C(F)(F)F)n1` [Compound S553-0322], the remaining activity at 1700 µM (read-out: DdlB RA) amounted to 105%.

Take `O=C(O)COCC(=O)Nc1ccc(-c2nn[nH]n2)cc1` [Compound D047-0107]: under setting [1], the remaining activity at 1800 µM amounted to 93%.

On to `CC(=O)c1cnc2c(C(=O)O)cnn2c1C` [Compound D717-0038], for which, where the note is “read-out: DdlB RA”, the remaining activity at 2300 µM stood at 104%.

On to `COc1ccc2[nH]c(S(=O)(=O)O)nc2c1` [Compound 3260-0314], for which the remaining activity at 2200 µM (read-out: DdlB RA) amounted to 91%.

Take `CC(=O)CC1(O)C(=O)Nc2ccc(Br)cc21` (stereo not shown) [Compound 5897-0084]: the remaining activity at 1800 µM under setting [2] is 96%.

In the case of `CC(=O)Oc1cccc(C(=O)O)c1` [FLD001], the remaining activity at 2500 µM under setting [3] worked out at 100%.

In the case of `COCn1nc(C)c(N)c1C` [Compound Y504-8876], the remaining activity at 3900 µM (residual activity of DdlB, fragment library screening, tested concentration 3.9 mM, read-out: DdlB RA) is 92%.

On to `O=C(O)CC1C(=O)NCCN1C1Cc2ccccc2C1` (stereo not shown) [Compound D236-0050], for which, under setting [2], the remaining activity at 2000 µM was 103%.

In the case of `Cc1cc(O)n(C2CCS(=O)(=O)C2)n1` (stereo not shown) [Compound Y020-9160], the remaining activity at 2300 µM (read-out: DdlB RA) stood at 99%.

In the case of `Cc1nc(O)[nH]c(=O)c1S(=O)(=O)NC(C)(C)C` [Compound D668-0207], the remaining activity at 1900 µM under setting [2] came out at 85%.

For `Cc1nc(C(=O)O)c(C)n1C1CCN(C)CC1` [FF20-0714], the remaining activity at 2100 µM under setting [2] amounted to 100%.

For the compound `CCCNC(=O)N1CCC2(CCC(=O)N(C)CC2)CC1` [Compound S509-1557], under setting [2], the remaining activity at 2000 µM stood at 98%.

Consider `NC(=O)c1cnn2c(-c3ccccc3)ccnc12` [Compound 21, 7-Phenylpyrazolo[1,5-a]pyrimidine-3-carboxamide], for which, where the note is “at 0.5 mM, read-out: DdlB inhibition, RA (Residual Activity)”, the remaining activity at 500 µM came to 96%.

Turning to `O=C(Cc1c[nH]c2ncccc12)NCc1ccccc1` [Compound M508-0504], the remaining activity at 1900 µM under setting [2] was determined as 82%.

For `O=C(O)c1cc(S(=O)(=O)N2CCOCC2)ccc1O` [Compound 1494-0564], the remaining activity at 1700 µM under setting [2] is 92%.

Consider `CCN(Cc1ccccc1)S(=O)(=O)c1ncn[nH]1` [Compound 8013-0404], for which, under setting [2], the remaining activity at 1900 µM came to 89%.

Regarding `CN1CCC(Oc2ncccc2C(=O)O)CC1` [Compound P391-0905], for the setting “read-out: DdlB RA”, the remaining activity at 2100 µM stood at 92%.

As to `CCn1nccc1C(=O)N1CC(n2ccnc2C)C1` [Compound S695-2086], the remaining activity at 1900 µM (read-out: DdlB RA) was determined as 95%.

Regarding `C/C=C/c1ccc(OC)cc1` [FLD073], the remaining activity at 2500 µM under setting [3] was found to be 100%.

Regarding `CCOC1CN=C2C(C#N)=CC=CN21` (stereo not shown) [Compound Y600-6204], the remaining activity at 2200 µM (read-out: DdlB RA) came to 92%.

For the compound `Cc1cc(C)n(CO)n1` [FLD195], the remaining activity at 2500 µM under setting [3] came out at 97%.

With `Cc1cnc(C)n1CCNC(=O)C1CC=CC1` [Compound S751-1890], the remaining activity at 2600 µM (read-out: DdlB RA) worked out at 98%.

Turning to `NCCc1noc(C2CC2)n1` [Compound S399-0482], the remaining activity at 2600 µM under setting [3] worked out at 95%.

Take `O=C1CNC(=O)N1` [FLD041]: the remaining activity at 2500 µM under setting [3] came out at 95%.

With `CC(C)CN1CC(O)CN(C(=O)C2CCC2)CC1=O` (stereo not shown) [SA85-1056], the remaining activity at 2200 µM under setting [2] is 97%.

Regarding `Nc1ncn[nH]1` [FLD103], the remaining activity at 2500 µM under setting [3] is 95%.

As to `O=C(NCc1ccccc1)C1(F)CCNC1` (stereo not shown) [SA94-0001], the remaining activity at 1900 µM (read-out: DdlB RA) amounted to 97%.

Consider `C#CC(=O)NC(C)c1ccc(C)cc1` (stereo not shown) [Compound T001-1588], for which the remaining activity at 3200 µM under setting [3] was 93%.

As to `N#CCS(=O)(=O)C1CCCCC1` [FF20-0194], under setting [3], the remaining activity at 3200 µM was 101%.

As for `c1cnc2[nH]cc(CCN3CCNCC3)c2c1` [FF01-3277], the remaining activity at 2200 µM under setting [2] turned out to be 62%.

Regarding `O=C(O)CCNc1nc(F)cc(F)n1` [Compound 8012-6989], under “read-out: DdlB RA”, the remaining activity at 2500 µM is 93%.

Regarding `N#Cc1cncc(Br)c1` [FLD123], the remaining activity at 2500 µM under setting [3] is 97%.
